# What was measured:
# Assay type in all cases: in vivo
# [1] = system: Tomatoes (cv. Ponderosa Red Beefsteak, Red Cherry, Rutgers VF); test: Field trial: marketable yield and seed size; conditions: for Percent increases (size of seeds) / Wt. of treated seed: 100 seeds; for Percent increases (size of seeds) / Wt. of treated seed / Fresh wt. (marketable yield) / Percent increases (marketable yield): 1-triacontanol 0.25 mg/liter; for Wt. of treated seed: control seed 0.32; for Fresh wt. (marketable yield) / Percent increases (marketable yield): pH 9 to 10
# Experimental: (§1) Field trials were conducted in Northern Virginia on plots that were replicated at least five items. Plots consisted of single rows of plants in blocks of three or more plots, with treatments being assigned randomly within each block.
# Plants were fertilized with the fertilizers described in Table 1, and sprayed at air temperatures listed in the same Table. Spraying was usually avoided under windy conditions to avoid drift. In the examples set forth herein, data were treated in a similar manner to those found in the greenhouse trials, with analysis of variance performed for each trial, and the use of a suitable statistical method for the analysis of results, preferably Duncan's multiple range test.
# [2] = system: Watermelon Seedlings (cv. Dixie Queen); test: Greenhouse trial: dry weight of seedlings; conditions: 1-triacontanol 0.1 mg/liter, pH 9.8; for Dry wt.: per 4 plants
# Experimental: (§2) In general, greenhouse trials were conducted as follows: eight to twelve seeds were sown per pot in Peat-Lite® Mix and received an average of 100 ml of water per day. After plants had the third true leaf (average), the various formulations were applied to the leaves as a fine mist at air temperatures listed in Table 1. Temperatures above 20° C., preferably 25°-30° C., are preferred.
# (§3) The 1-triacontanol formulation most generally used consisted of a concentrate containing 5 mg of 1-triacontanol dissolved in 1 liter of acetone, with 20 ml of the concentrate being further dissolved to 1 liter with water having a pH between 8 and 10, with over a pH of 11 also being effective. The pH was adjusted with aqueous NaOH and the concentrate added just prior to spraying.
# (§4) When other plant growth substances were added to the formulations, these were added either to the concentrate in the polar organic solvent or alternatively in the aqueous solution, depending on the solubility of the plant growth substance. All metal salts were added to the water used to spray the 1-triacontanol formulations. After spraying, preferably about four to nine days or more, plants were harvested with roots, and fresh weights were obtained. Plants were then dried in an oven, preferably at a temperature below 100° C., until constant weight was obtained, and dry weight values were obtained for each plot. Subtraction of the dry weights from the fresh weights gave the water uptake weights (water content) of each plot. The weights of the above mentioned seedlings were compared to the control weights to obtain the percent increases.
# (§5) It is particularly advantageous to arrange each of the potted plants in size range categories corresponding to the number of replications used. For example, if five replications are employed, plants are divided into five size categories, normally measured by the height of the plants. Treatments are then assigned randomly within each block (size category). This removes the variation due to plant size for statistical purposes, as is well practiced in the art. The resulting data is analyzed using any appropriate means, which may include the least significant difference method (L.S.D. method), Duncan's multiple range test, as used here (Biometrics, 11: 1 (1955)), or other means.
# [3] = system: Soybean Seedlings (cv. Prize); test: Greenhouse trial: dry weight of seedlings; conditions: for Dry wt.: per four plants per plot
# Experimental: as §2, §3, §4, §5
# [4] = system: Winter Wheat Seedlings (cv. Augusta); test: Greenhouse trial: dry weight of seedlings; conditions: triacontanol 0.1 mg/l, pH 9.0
# Experimental: as §2, §3, §4, §5
# [5] = system: Hybrid Sweet Corn Seedlings (cv. Silver Queen); test: Greenhouse trial: dry weight and water uptake of seedlings after foliar spraying
# Experimental: as §2, §3, §4, §5
# [6] = system: Field Corn Seedlings (cv. Trojan TXS 94, Pioneer 3780, WF9 X Bear 38); test: as above; conditions: cv. Trojan TXS 94, no metal salt, 1-triacontanol 0.1 mg/liter
# Experimental: as §2, §3, §4, §5
# [7] = system: Sweet Corn (cv. Silver Queen, Early Sunglow, Jubilee); test: Field trial: crop yield and seed size; conditions: for Percent increase in marketable yield: triacontanol 0.25 mg/l
# Experimental: as §1
# (§6) Plants were fertilized with the fertilizers described in Table 1, and sprayed at air temperatures listed in the same Table. Spraying was usually avoided under windy conditions to avoid drift.
# [8] = system: Beans (cv. Blue Lakes Stringless, Early Bird); test: Field trial: crop yield and seed size; conditions: 100 seeds, CaCl2 5 mM, no IAA, 1-triacontanol 0.25 mg/liter
# Experimental: as §1, §6
# [9] = cv. Ponderosa Red Beefsteak, CaCl2 5 mM, no IAA
# [10] = cv. Ponderosa Red Beefsteak, CaCl2 50 mM, IAA 0.01 mM
# [11] = cv. Ponderosa Red Beefsteak, CaCl2 5 mM, no IAA (Formulation 12)
# [12] = cv. Ponderosa Red Beefsteak, CaCl2 50 mM, IAA 10 μM (Formulation 16)
# [13] = cv. Ponderosa Red Beefsteak, previous year
# [14] = cv. Red Cherry, CaCl2 5 mM, no IAA (Formulation 12)
# [15] = cv. Red Cherry, CaCl2 50 mM, IAA 10 μM (Formulation 16)
# [16] = cv. Rutgers VF, CaCl2 5 mM, no IAA (Formulation 12)
# [17] = cv. Rutgers VF, CaCl2 50 mM, IAA 10 μM (Formulation 16)
# [18] = CaCl2 5 mM, 1-triacontanol 0.1 mg/liter
# [19] = CaCl2 10 mM, 1-triacontanol 0.1 mg/liter
# [20] = CaCl2 20 mM, 1-triacontanol 0.1 mg/liter
# [21] = CaCl2 50 mM, NAA 1.5 μM (Formulation 7)
# [22] = 14-day old seedlings, 1-triacontanol 0.1 mg/liter alone, no plant growth substance (Formulation 2)
# [23] = 14-day old seedlings, metal ion 9 mM (none in the last line) with 1-triacontanol 0.1 mg/liter, pH 8 to 10, Formulation 4
# [24] = Formulation 4, 1-triacontanol 0.5 mg/liter, 10 mM CaCl2, pH 8.1, test seed first generation (sprayed) vs control first (not sprayed)
# [25] = Formulation 4, 1-triacontanol 0.5 mg/liter, 10 mM CaCl2, pH 8.1, test seed second generation (first and second sprayed) vs control second (first and second not sprayed)
# [26] = Formulation 4, 1-triacontanol 0.5 mg/liter, 10 mM CaCl2, pH 8.1, test seed second generation (first and second sprayed) vs control second (second was sprayed only)
# [27] = Formulation 4, 1-triacontanol 0.5 mg/liter, 10 mM CaCl2, pH 8.1, test seed second generation (first was sprayed only) vs control second (first and second not sprayed)
smiles,measurement,setting,value
"CCCCCCCCCCCCCCCCCCCCCCCCCCCCCCO [1-Triacontanol, 1-triacontanol]",Percent increases (size of seeds),[1]; [9],+25%
same,Wt. of treated seed,[1]; [9],0.40 g
same,Percent increases (size of seeds),[1]; [10],+6%
same,Wt. of treated seed,[1]; [10],0.34 g
same,Fresh wt. (marketable yield),[1]; [11],15353 g
same,Percent increases (marketable yield),[1]; [11],+38%
same,Fresh wt. (marketable yield),[1]; [12],22283 g
same,Percent increases (marketable yield),[1]; [12],+45%
same,Early yield over controls,[1]; [13],72%
same,Late yield over controls,[1]; [13],67%
same,Fresh wt. (marketable yield),[1]; [14],5679 g
same,Percent increases (marketable yield),[1]; [14],+26%
same,Fresh wt. (marketable yield),[1]; [15],6225 g
same,Percent increases (marketable yield),[1]; [15],+38%
same,Fresh wt. (marketable yield),[1]; [16],14079 g
same,Percent increases (marketable yield),[1]; [16],+7%
same,Fresh wt. (marketable yield),[1]; [17],20880 g
same,Percent increases (marketable yield),[1]; [17],+59%
same,Percent increases (dry weight),"[2]; CaCl2 5 mM, no IAA",+38%
same,Dry wt.,"[2]; CaCl2 5 mM, no IAA, sprayed Day 36, harvested Day 45, control 0.61 g",0.84 gm
same,Percent increases (dry weight),"[2]; CaCl2 10 mM, no IAA",+48%
same,Dry wt.,"[2]; CaCl2 10 mM, no IAA",0.90 gm
same,Percent increases (dry weight),"[2]; CaCl2 50 mM, IAA 10 μM",+65%
same,Dry wt.,"[2]; CaCl2 50 mM, IAA 10 μM",1.01 gm
same,Dry wt.,"[3]; CaCl2 3 mM as printed, 1-triacontanol 0.1 mg/liter",1.96 g
same,Increase (dry weight),[3]; [18],+17%
same,Dry wt.,[3]; [18],2.30 g
same,Increase (dry weight),[3]; [19],+37%
same,Dry wt.,[3]; [19],2.68 g
same,Increase (dry weight),[3]; [20],+35%
same,Dry wt.,[3]; [20],2.65 g
same,Increase (dry weight),"[3]; line printed as ""Control"" but with an increase",+7%
same,Increase (dry weight),"[4]; CaCl2 0 mM, no NAA",0%
same,Dry wt.,"[4]; CaCl2 0 mM, no NAA, average sum of four plants per plot, control 0.513 g",0.520 g
same,Dry wt.,"[4]; CaCl2 5 mM, no NAA",0.502 g
same,Increase (dry weight),"[4]; CaCl2 5 mM, no NAA",-2%
same,Dry wt.,"[4]; CaCl2 10 mM, no NAA",0.682 g
same,Increase (dry weight),"[4]; CaCl2 10 mM, no NAA",+33%
same,Dry wt.,"[4]; CaCl2 15 mM, no NAA",0.616 g
same,Increase (dry weight),"[4]; CaCl2 15 mM, no NAA",+20%
same,Dry wt.,"[4]; CaCl2 20 mM, no NAA",0.682 g
same,Increase (dry weight),"[4]; CaCl2 20 mM, no NAA",+33%
same,Dry wt.,"[4]; CaCl2 25 mM, no NAA",0.708 g
same,Increase (dry weight),"[4]; CaCl2 25 mM, no NAA",+38%
same,Dry wt.,[4]; [21],0.872 g
same,Increase (dry weight),[4]; [21],+70%
same,Increase in dry weight,"[5]; 1-triacontanol 0.1 mg/liter, Formulation 4, additive 9 mM (none in the last line)",+21%
same,"Increases, H2O uptake",[5]; [22],+16%
same,"Increases, dry wt.",[5]; [22],+20%
same,% increase (dry weight),[5]; [23],+21%
same,% increase (water uptake),[5]; [23],+16%
same,Dry weight,"[5]; 14-day old seedlings, metal ion 9 mM (none in the last line) with 1-triacontanol 0.1 mg/liter, pH 8 to 10, Formulation 4, control 0.86 g",1.04 g
same,Water uptake,"[5]; 14-day old seedlings, metal ion 9 mM (none in the last line) with 1-triacontanol 0.1 mg/liter, pH 8 to 10, Formulation 4, control 8.7 g",10.1 g
same,"Increases, H2O uptake","[5]; 14-day old seedlings, no metal salt, 1-triacontanol 0.1 mg/liter, Formulation 1 as printed",+16%
same,"Increases, H2O uptake",[5]; [24],+41%
same,"Increases, dry wt.",[5]; [24],+44%
same,"Increases, H2O uptake",[5]; [25],+78%
same,"Increases, dry wt.",[5]; [25],+80%
same,"Increases, H2O uptake",[5]; [26],+46%
same,"Increases, dry wt.",[5]; [26],+41%
same,"Increases, H2O uptake",[5]; [27],+40%
same,"Increases, dry wt.",[5]; [27],+44%
same,"Increases, dry wt.","[5]; foliar, 0.1 ug/mL",+20%
same,Dry wt. increase,[6]; Formulation 4,-3%
same,Dry wt. increase,[6]; Formulation 11,-8%
same,Percent increase in marketable yield,"[7]; cv. Early Sunglow, CaCl2 10 mM, no IAA, pH 9.8",+47%
same,Percent increase in marketable yield,"[7]; cv. Early Sunglow, CaCl2 50 mM, IAA 10 μM, pH 9.8",+20%
same,Percent increase in marketable yield,"[7]; cv. Jubilee, CaCl2 10 mM, no IAA, pH 9.7",+44%
same,Percent increase in marketable yield,"[7]; cv. Jubilee, CaCl2 50 mM, IAA 10 μM, pH 9.7",+31%
same,Percent increases (size of seeds),"[7]; cv. Silver Queen, 500 seeds, CaCl2 9 mM, no IAA, 1-triacontanol 0.25 mg/liter",+47%
same,Wt. of treated seed,"[7]; cv. Silver Queen, 500 seeds, CaCl2 9 mM, no IAA, 1-triacontanol 0.25 mg/liter, control seed 29.7 g",43.8 g
same,Percent increase in marketable yield,"[7]; cv. Silver Queen, CaCl2 10 mM, no IAA, pH 10.4",+49%
same,Percent increase in marketable yield,"[7]; cv. Silver Queen, CaCl2 50 mM, IAA 10 μM, pH 10.4",+16%
same,Increases (field trial data for the previous year),"[7]; cv. Silver Queen, previous year, three out of three trials",51-54%
same,Percent increases (size of seeds),[8],+54%
same,Wt. of treated seed,[8]; control seed 18.1,27.8 g

# Reference: patent publication US4470840A, “1-Triacontanol plant growth stimulator formulations” (Biochemical Research Corporation, priority 1981, dated 1984)
